Results as given in the supplement of paper PMC12137928.
Where a name gives a salt, the structure may show the parent alone.

Tests used:
HCT116 [1] = test: efficacy (maximum % inhibition of viability vs DMSO); higher = more cytotoxic; settings: 72 h
Outline: (§1)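 In 1536-well plates, 250 HCT116 cells per well were seeded and left for 5 h to attach. Luminescence from CellTiter-Glo was set against vehicle (0%) and positive control (-100%), and pattern correction was applied. IC50 and maximal efficacy come from four-parameter Hill fitting.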

HCT116 [2] = settings: 72 h
Outline: as §1

IC50 cell viability (HCT116 [2]; ICRF193 0 nM)	IC50 cell viability (HCT116 [2]; ICRF193 200 nM)	Compound	efficacy (HCT116 [1]; ICRF193 0 nM)	efficacy (HCT116 [1]; ICRF193 200 nM)
29.1 µM	> 45.8 µM	C/C=C(/C(=C/C)c1ccc(O)cc1)c1ccc(O)cc1 [Dienestrol]	74.2%	
18.3 µM	23.1 µM	CC/C(=C(/CC)c1ccc(O)cc1)c1ccc(O)cc1 [Diethylstilbestrol]	52.4%	47.5%
29.1 µM	23.1 µM	CC(C(O)c1ccccc1)N(C)CCOC(c1ccccc1)c1ccccc1 (stereo not drawn) [Difeterol]	83%	85.3%
0.183 µM	0.146 µM	C[C@H]1O[C@@H](O[C@H]2[C@@H](O)C[C@H](O[C@H]3[C@@H](O)C[C@H](O[C@H]4CC[C@@]5(C)[C@H](CC[C@@H]6[C@@H]5C[C@@H](O)[C@]5(C)[C@@H](C7=CC(=O)OC7)CC[C@]65O)C4)O[C@@H]3C)O[C@@H]2C)C[C@H](O)[C@@H]1O [Digoxin]	76.2%	83.8%
> 45.8 µM	29.1 µM	COc1cc(C(=O)OCCCN2CCCN(CCCOC(=O)c3cc(OC)c(OC)c(OC)c3)CC2)cc(OC)c1OC [Dilazep]		51.1%
29.1 µM	> 45.8 µM	O=c1c(-c2ccccc2)c1-c1ccccc1 [Diphenylcyclopropenone]	100%	
1.42 µM	1.27 µM	[O-][n+]1ccccc1SSc1cccc[n+]1[O-] [Dipyrithione]	83.9%	74.7%
23.1 µM	20.6 µM	CCN1\C(=C/C=C/C=C/c2sc3ccccc3[n+]2CC)Sc2ccccc21 [Dithiazanine chloride]	96.7%	99%
> 45.8 µM	23.1 µM	CC(CCc1ccc(O)cc1)NCCc1ccc(O)c(O)c1 (stereo not drawn) [Dobutamine]		83.3%
0.0103 µM	0.0146 µM	CC(=O)O[C@@]12CO[C@@H]1C[C@H](O)[C@@]1(C)C(=O)[C@H](O)C3=C(C)[C@@H](OC(=O)[C@H](O)[C@@H](NC(=O)OC(C)(C)C)c4ccccc4)C[C@@](O)([C@@H](OC(=O)c4ccccc4)[C@H]21)C3(C)C [Docetaxel]	60.8%	56.5%
10.3 µM	8.2 µM	CCCCCCCCCCCC[N+](C)(C)CCOc1ccccc1 [Domiphen bromide]	101%	90.4%
> 45.8 µM	18.3 µM	Oc1ccc(CCNCCCCCCNCCc2ccccc2)cc1O [Dopexamine]		47.3%
20.6 µM	29.1 µM	CN(C)CC/C=C1\c2ccccc2CSc2ccccc21 [Dosulepin hydrochloride]	67.8%	69.1%
29.1 µM	18.3 µM	COc1cc2nc(N3CCN(C(=O)C4COc5ccccc5O4)CC3)nc(N)c2cc1OC (stereo not drawn) [Doxazosin mesylate]	106%	95.6%
29.1 µM	29.1 µM	C=C1/C(=C\C=C2/CCC[C@]3(C)[C@@H]([C@H](C)/C=C/[C@H](C)C(C)C)CC[C@@H]23)C[C@@H](O)C[C@@H]1O [Doxercalciferol]	101%	102%
16.4 µM	23.1 µM	C[C@H]1c2cccc(O)c2C(=O)C2=C(O)[C@]3(O)C(=O)C(C(N)=O)=C(O)[C@@H](N(C)C)[C@@H]3[C@@H](O)[C@@H]21 [Doxycycline]	41.6%	62.7%
20.6 µM	29.1 µM	CCCCc1oc2ccc(NS(C)(=O)=O)cc2c1C(=O)c1ccc(OCCCN(CCCC)CCCC)cc1 [Dronedarone hydrochloride]	115%	68.2%
18.3 µM	23.1 µM	C[C@]12CCC(=O)C=C1[C@@H]1C[C@@H]1[C@H]1[C@@H]3[C@@H]4C[C@@H]4[C@@]4(CCC(=O)O4)[C@@]3(C)CC[C@@H]12 [Drospirenone]	51.3%	49.1%
18.3 µM	20.6 µM	CNCC[C@H](Oc1cccc2ccccc12)c1cccs1 [Duloxetine hydrochloride]	93%	105%
> 45.8 µM	20.6 µM	CC(=O)[C@H]1CC[C@H]2[C@@H]3C=CC4=CC(=O)CC[C@@]4(C)[C@@H]3CC[C@]12C [Dydrogesterone]		41.7%
> 45.8 µM	29.1 µM	C=C1CC[C@H](O)C/C1=C/C=C1\CCC[C@]2(C)[C@@H]([C@H](C)/C=C/[C@H](C)C(C)C)CC[C@@H]12 [ERGOCALCIFEROL]		56.2%
18.3 µM	18.3 µM	Cc1cc(-c2ccc(/N=N/c3ccc4c(S(=O)(=O)O)cc(S(=O)(=O)O)c(N)c4c3O)c(C)c2)ccc1/N=N/c1ccc2c(S(=O)(=O)O)cc(S(=O)(=O)O)c(N)c2c1O [EVANS BLUE]	95.6%	87.8%

IC50 cell viability (HCT116 [2]; ICRF193 0 nM)	IC50 cell viability (HCT116 [2]; ICRF193 200 nM)	Compound	efficacy (HCT116 [1]; ICRF193 0 nM)	efficacy (HCT116 [1]; ICRF193 200 nM)
29.1 µM	23.1 µM	CC(C)(C)c1ccc(C(=O)CCCN2CCC(OC(c3ccccc3)c3ccccc3)CC2)cc1 [Ebastine]	115%	112%
> 45.8 µM	0.103 µM	CC(C)c1cc2c(cc1S(=O)(=O)O)[C@@]1(C)CCC[C@@](C)(C(=O)O)[C@@H]1CC2 [Ecabet]		63.3%
20.6 µM	20.6 µM	Clc1ccc(COC(Cn2ccnc2)c2ccc(Cl)cc2Cl)cc1 (stereo not drawn) [Econazole nitrate]	90.3%	96%
20.6 µM	25.9 µM	O=C1Nc2ccc(Cl)cc2[C@@](C#CC2CC2)(C(F)(F)F)O1 [Efavirenz]	56.7%	44.6%
16.4 µM	> 45.8 µM	CC1=C(C(=O)OCCN(Cc2ccccc2)c2ccccc2)C(c2cccc([N+](=O)[O-])c2)C(P2(=O)OCC(C)(C)CO2)=C(C)N1 (stereo not drawn) [Efonidipine hydrochloride monoethanolate]	41.1%	
> 45.8 µM	29.1 µM	CCCCCCCC(=O)N[C@H](CN1CCCC1)[C@H](O)c1ccc2c(c1)OCCO2 [Eliglustat (Tartrate)]		44.2%
6.51 µM	> 45.8 µM	CC1=NN(c2ccc(C)c(C)c2)C(=O)/C1=N\Nc1cccc(-c2cccc(C(=O)O)c2)c1O [Eltrombopag olamine]	41.9%	
18.3 µM	20.6 µM	COc1cc2c(cc1Cc1cccc(Cl)c1F)c(=O)c(C(=O)O)cn2[C@H](CO)C(C)C [Elvitegravir]	71.8%	83%
> 45.8 µM	20.6 µM	CNC(=O)c1ccc(N2C(=S)N(c3ccc(C#N)c(C(F)(F)F)c3)C(=O)C2(C)C)cc1F [Enzalutamide]		45.8%
0.73 µM	1.46 µM	COc1cccc2c1C(=O)c1c(O)c3c(c(O)c1C2=O)C[C@@](O)(C(=O)CO)C[C@@H]3O[C@H]1C[C@H](N)[C@@H](O)[C@H](C)O1 [Epirubicin hydrochloride]	91.9%	73.8%
0.0651 µM	0.164 µM	C=C1C[C@@H]2CC[C@@]34C[C@H]5O[C@H]6[C@@H](O3)[C@H]3O[C@H](CC[C@@H]3O[C@H]6[C@H]5O4)CC(=O)C[C@@H]3[C@@H](OC)[C@@H](C[C@H](O)CN)O[C@H]3C[C@H]3O[C@@H](CC[C@@H]1O2)C[C@@H](C)C3=C [Eribulin mesylate]	90.6%	77.5%
> 45.8 µM	14.6 µM	C#Cc1cccc(Nc2ncnc3cc(OCCOC)c(OCCOC)cc23)c1 [Erlotinib]		50.4%
> 45.8 µM	20.6 µM	CCCCC(=O)O[C@H]1CC[C@H]2[C@@H]3CCc4cc(O)ccc4[C@H]3CC[C@]12C [Estradiol valerate]		49.3%
18.3 µM	29.1 µM	C[C@]12CC[C@@H]3c4ccc(O)cc4CC[C@H]3[C@@H]1CC[C@@H]2O [Estradiol]	49.5%	51.8%
18.3 µM	29.1 µM	CCOc1ccc2nc3cc(N)ccc3c(N)c2c1 [Ethacridine lactate hydrate]	54.4%	50.6%
6.51 µM	> 45.8 µM	CCOc1ccc(Cc2nccc3cc(OCC)c(OCC)cc23)cc1OCC [Ethaverine hydrochloride]	61.3%	
> 45.8 µM	20.6 µM	C#C[C@]1(O)CC[C@H]2[C@@H]3CCc4cc(O)ccc4[C@H]3CC[C@@]21C [Ethinylestradiol]		41.1%
> 45.8 µM	23.1 µM	C#C[C@]1(OC(C)=O)CC[C@H]2[C@@H]3CCC4=C[C@@H](OC(C)=O)CC[C@@H]4[C@H]3CC[C@@]21C [Ethynodiol diacetate]		47.1%
0.517 µM	0.366 µM	COc1cc([C@@H]2c3cc4c(cc3[C@@H](O[C@@H]3O[C@@H]5CO[C@@H](C)O[C@H]5[C@H](O)[C@H]3O)[C@H]3COC(=O)[C@H]23)OCO4)cc(OC)c1OP(=O)(O)O [Etoposide  Phosphate]	60.8%	79.9%
29.1 µM	2.91 µM	COc1cc([C@@H]2c3cc4c(cc3[C@@H](O[C@@H]3O[C@@H]5CO[C@@H](C)O[C@H]5[C@H](O)[C@H]3O)[C@H]3COC(=O)[C@H]23)OCO4)cc(OC)c1O [Etoposide]	66.7%	99.1%
29.1 µM	29.1 µM	Cc1cc(C#N)cc(C)c1Oc1nc(Nc2ccc(C#N)cc2)nc(N)c1Br [Etravirine]	49%	54.9%
0.0259 µM	0.0231 µM	CC[C@@]1(O)C(=O)OCc2c1cc1n(c2=O)Cc2c-1nc1cc(F)c(C)c3c1c2[C@@H](N)CC3 [Exatecan]	60%	48.8%

Compound	IC50 cell viability (HCT116 [2]; ICRF193 0 nM)	IC50 cell viability (HCT116 [2]; ICRF193 200 nM)	efficacy (HCT116 [1]; ICRF193 0 nM)	efficacy (HCT116 [1]; ICRF193 200 nM)
O=c1c(C2CC(c3ccc(-c4ccc(Br)cc4)cc3)Cc3ccccc32)c(O)sc2ccccc12 (stereo not drawn) [Difethialone]	23.1 µM	18.3 µM	46.7%	68.3%
CC(=O)O[C@H]1C[C@H](O[C@H]2[C@@H](O)C[C@H](O[C@H]3[C@@H](O)C[C@H](O[C@H]4CC[C@@]5(C)[C@H](CC[C@@H]6[C@@H]5CC[C@]5(C)[C@@H](C7=CC(=O)OC7)CC[C@]65O)C4)O[C@@H]3C)O[C@@H]2C)O[C@H](C)[C@H]1O [Digitoxin 3'''-Acetate]	0.231 µM	0.116 µM	75%	87.8%
CC[C@H]1CN2CCc3cc(OC)c(OC)cc3[C@@H]2C[C@@H]1C[C@H]1NCCc2cc(OC)c(OC)cc21 [EMETINE DIHYDROCHLORIDE]	0.146 µM	0.13 µM	70.8%	76.6%
C/C(=C\c1csc(C)n1)[C@@H]1C[C@@H]2O[C@]2(C)CCC[C@H](C)[C@H](O)[C@@H](C)C(=O)C(C)(C)[C@@H](O)CC(=O)O1 [Epothilone B]	0.00517 µM	0.0073 µM	66%	45.8%
CN1C[C@H](C(=O)N[C@]2(C)O[C@@]3(O)[C@@H]4CCCN4C(=O)[C@H](Cc4ccccc4)N3C2=O)C=C2c3cccc4[nH]cc(c34)C[C@H]21 [Ergotamine tartrate]	> 45.8 µM	18.3 µM		70.8%
